Test systems include RXF 393 renal; SF-539 CNS; NCI/ADR-RES ovarian; SR leukemia; M14 melanoma; PC-3 prostate; MDA-MB-231 breast; K-562 leukemia; HCT-15 colon; HOP-62 NSCLC.
What all share (assay): inhibition of tumour cell growth, NCI panel, 48 h

Values joined by “and” are separate entries in the source; they are usually repeats but may differ in a detail not shown here. Identical values can stand only once.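 1) Cells in 96-well plates. 2) Compound, 48 h, 5 concentrations. 3) Linear interpolation between surrounding doses. 4) Unreached endpoint = highest concentration. Here, GI50 denotes the concentration required for 50% inhibition of growth. TGI: concentration producing complete growth inhibition.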

Consider `Nc1nccc2c1ccn2-c1cccc(NC(=O)c2ccc(N3CCOCC3)c(C(F)(F)F)c2)c1`, for which the GI50 in the assay with RXF 393 renal was 0.213 µM; in the assay on SF-539 CNS it was 1.02 µM; in the assay with NCI/ADR-RES ovarian it was 0.361 µM; in the assay on SR leukemia, 0.205 µM; in the assay with M14 melanoma it was 0.788 µM; in the assay on PC-3 prostate it was 0.565 µM. The GI50 in the assay with MDA-MB-231 breast was 0.874 µM; in the assay with K-562 leukemia, 0.233 µM; with HCT-15 colon it was 0.443 µM; with HOP-62 NSCLC, 1.27 µM. The TGI in the assay with RXF 393 renal was 0.876 µM; in the assay on SF-539 CNS, 4 µM; in the assay on NCI/ADR-RES ovarian, more than 10.2 µM; in the assay on SR leukemia, more than 11.3 µM; with M14 melanoma it was 7.6 µM; in the assay on PC-3 prostate, 15 µM. Moreover, the TGI in the assay on MDA-MB-231 breast is 2.86 µM; with K-562 leukemia, more than 39.4 µM; with HCT-15 colon it was more than 22.7 µM; with HOP-62 NSCLC, more than 25.8 µM.
`O=C1/C(=C/c2ccc(Cl)c(Cl)c2)CNC/C1=C\c1ccc(Cl)c(Cl)c1`: the TGI in the assay on RXF 393 renal is 29.5 µM; in the assay with SF-539 CNS it was 15.9 µM; in the assay with NCI/ADR-RES ovarian it was 14.1 µM; with SR leukemia, more than 24 µM; in the assay on M14 melanoma, 33.9 µM; in the assay on PC-3 prostate it was 47.7 µM. Besides, the TGI in the assay on MDA-MB-231 breast was found to be 8.7 µM; with K-562 leukemia it was 19.5 µM; in the assay with HCT-15 colon it was 7.95 µM; in the assay with HOP-62 NSCLC, 38.8 µM.
As for `Nc1nc(-c2ccc(Cl)cc2)cc(-c2ccc(Cl)cc2)c1-c1nc2ccccc2o1`, the GI50 is 14.1 µM in the assay with RXF 393 renal; 19.9 µM in the assay with SF-539 CNS; 14.5 µM in the assay on NCI/ADR-RES ovarian; 14.3 µM in the assay on SR leukemia; 17.4 µM in the assay on M14 melanoma; 13.2 µM in the assay with PC-3 prostate. The GI50 with MDA-MB-231 breast was 15.8 µM; in the assay with K-562 leukemia, 13.7 µM; with HCT-15 colon, 17.2 µM; in the assay with HOP-62 NSCLC, 13 µM. For the same molecule, the TGI came out at 33.5 µM with RXF 393 renal; 35.7 µM with SF-539 CNS; 30.9 µM in the assay on NCI/ADR-RES ovarian; 30.5 µM in the assay with SR leukemia; 34.4 µM with M14 melanoma; 27.1 µM in the assay on PC-3 prostate. In addition, the TGI with MDA-MB-231 breast was determined as 31.3 µM; in the assay with K-562 leukemia, 52.3 µM; in the assay on HCT-15 colon, 34.8 µM; in the assay with HOP-62 NSCLC, 27.1 µM.
Regarding `COc1ccc(-c2nnc(SCC(=O)Nc3ccc(C(=O)/C=C/c4cc(OC)c(OC)c(OC)c4)cc3)n2-c2ccccc2)cc1OC`, the GI50 is 2.13 µM with RXF 393 renal; 3.2 µM with SF-539 CNS; more than 10 µM in the assay with NCI/ADR-RES ovarian; 0.666 µM in the assay with SR leukemia; 3.33 µM in the assay on M14 melanoma; 6.89 µM in the assay on PC-3 prostate. Also, the GI50 with MDA-MB-231 breast was 4.84 µM; with K-562 leukemia, 4.92 µM; in the assay on HCT-15 colon, 2.01 µM; in the assay on HOP-62 NSCLC, 8.52 µM. For the same molecule, the TGI in the assay on RXF 393 renal was 6.85 µM; in the assay on SF-539 CNS it was more than 10 µM; in the assay on NCI/ADR-RES ovarian, more than 10 µM; in the assay with SR leukemia it was more than 10 µM; with M14 melanoma it was more than 10 µM; in the assay with PC-3 prostate, more than 10 µM. The TGI in the assay on MDA-MB-231 breast, with K-562 leukemia, with HCT-15 colon and in the assay with HOP-62 NSCLC was more than 10 µM in each case.
Take `Fc1ccc([C@@H]2CCNC[C@H]2COc2ccc3c(c2)OCO3)cc1`: the GI50 in the assay with RXF 393 renal is 5.28 µM; in the assay on SF-539 CNS, 12.8 µM; in the assay with NCI/ADR-RES ovarian, 14 µM; with SR leukemia it was 2.02 µM; with M14 melanoma, 2.93 µM; in the assay with PC-3 prostate it was 3.83 µM. The GI50 was 3.07 µM with MDA-MB-231 breast, 2.32 µM in the assay with K-562 leukemia, 11 µM with HCT-15 colon and 13.3 µM in the assay on HOP-62 NSCLC. The TGI in the assay on RXF 393 renal came to 20.1 µM; in the assay on SF-539 CNS, 25.6 µM; in the assay with NCI/ADR-RES ovarian it was 30 µM; in the assay on SR leukemia it was 5.34 µM; in the assay on M14 melanoma, 11.1 µM; with PC-3 prostate it was 17.2 µM. The TGI with MDA-MB-231 breast worked out at 15 µM; in the assay with K-562 leukemia it was 6.24 µM; in the assay on HCT-15 colon, 27 µM; in the assay with HOP-62 NSCLC, 27.4 µM.
For the molecule `CC(=O)Nc1ccc(-c2csc(Nc3cccc(-c4csc(-c5ccccc5)n4)c3)n2)cc1`, the GI50 with RXF 393 renal was 13.7 µM; in the assay on SF-539 CNS it was 23.3 µM; in the assay on NCI/ADR-RES ovarian it was 17.5 µM; in the assay on SR leukemia, 27.3 µM; in the assay on M14 melanoma, 20.5 µM; in the assay on PC-3 prostate, 14.7 µM. Besides, the GI50 with MDA-MB-231 breast is 13.5 µM; with K-562 leukemia it was 12.6 µM; with HCT-15 colon, 10.3 µM; in the assay on HOP-62 NSCLC, more than 50 µM. Moreover, the TGI in the assay with RXF 393 renal was 39.6 µM; in the assay with SF-539 CNS, more than 50 µM; in the assay with NCI/ADR-RES ovarian it was more than 50 µM; in the assay with SR leukemia it was more than 50 µM; with M14 melanoma, more than 50 µM; in the assay with PC-3 prostate it was more than 50 µM. Further, the TGI in the assay on MDA-MB-231 breast is 37.9 µM; in the assay on K-562 leukemia it was 48.5 µM; in the assay with HCT-15 colon it was more than 50 µM; in the assay on HOP-62 NSCLC it was more than 50 µM.
As to `c1ccc2cc(C[n+]3ccn(Cc4ccc5ccccc5n4)c3)ccc2c1`, the TGI with RXF 393 renal is 3.23 µM and 19.7 µM; with SF-539 CNS, 11.4 µM and 13.8 µM; with NCI/ADR-RES ovarian, more than 100 µM; with SR leukemia, 2.16 µM and 13.7 µM; with M14 melanoma, 4.55 µM and 17.1 µM; in the assay on PC-3 prostate, 3.18 µM and 13.9 µM. For the same molecule, the TGI with MDA-MB-231 breast is 1.97 µM and 8.2 µM; in the assay on K-562 leukemia, 13.8 µM and 14.8 µM; with HCT-15 colon, 27.7 µM and > 100 µM; in the assay with HOP-62 NSCLC it was 7.02 µM and 20.3 µM. In addition, the GI50 in the assay with SF-539 CNS was 0.421 µM and 2.72 µM; in the assay with NCI/ADR-RES ovarian, more than 100 µM; with SR leukemia, 0.364 µM and 2.82 µM; in the assay on M14 melanoma, 0.727 µM and 3.26 µM; in the assay with PC-3 prostate it was 0.342 µM and 2.39 µM; in the assay with MDA-MB-231 breast, 0.432 µM and 2.22 µM. In addition, the GI50 is 0.585 µM and 1.7 µM in the assay on K-562 leukemia; 12.3 µM and 53.5 µM in the assay on HCT-15 colon; 1.4 µM and 5.05 µM in the assay on HOP-62 NSCLC.

Values taken from PubChem BioAssay (NCI).
